Test results: patent US20160214996A1, “MACROCYCLIC COMPOUNDS FOR THE TREATMENT OF PROLIFERATIVE DISEASES” (CS Pharmasciences, Inc., priority 2013, published 2016)

Tests used:
ALK wild type = target: T1, ALK wild type (Homo sapiens, UniProt Q9UM73); test: ALK wild type standard HTRF enzyme assay; type: biochemical; conditions: 0.5 nM ALK wild type, 30 μM ATP, 90 minutes at room temperature, read-out: IC50 (nM) ALK_wt
T1 construct: purchased Carna Biosciences (Japan)
Description: (§1) Wild type ALK and L1196M mutant ALK enzyme inhibition by the compounds of formula (I) was measured using an HTRF assay.
(§2) ALK wild type and ALK L1196M were acquired from Carna Biosciences (Japan). A standard HTRF kit (containing Eu-labeled TK1 antibody, XL665, biotin conjugated TK1 peptide, 5× enzymatic buffer and 1×HTRF detection buffer) were purchased from Cis-Bio International. Plates were read on an Envision multi-label plate reader (Perkin Elmer).
(§3) In both assays, the compounds were tested in 11 doses in duplicate with 3-fold dilution as the final concentrations were from 10 μM to 0.17 nM. Compound 13a was tested with lower top concentrations of 1 μM due to high potency.
The enzyme reaction mixture of ALK wild type standard HTRF assay contained 0.5 nM ALK wild type, 1 μM biotin-TK1 peptide, 30 μM ATP and 50 nM SEB in 1× enzymatic reaction buffer containing 50 mM (pH 7.0) HEPES, 5 mM MgCl2, 0.02% NaN3, 0.01% BSA, 0.1 mM Orthovanadate and 1 mM DTT at a final volume of 10 μl. The enzyme reaction was carried out at room temperature in white Proxiplate 384-Plus plate (PerkinElmer) for 90 minutes.
(§4) The detection reagents ([…]) were added at final concentrations of 2 nM antibody and 62.5 nM XL665. The plates were incubated at room temperature for 60 minutes and then read in the Envision plate reader.
(§5) The readouts were transformed into inhibition rate % by the equation of (Ratio-Min)/(Max-Min)*100%.

ALK L1196M = target: T2, ALK L1196M (Homo sapiens, UniProt Q9UM73, L1196M); test: ALK L1196M standard HTRF enzyme assay; type: biochemical; conditions: 0.15 nM ALK L1196M, 30 μM ATP, 60 minutes at room temperature, read-out: IC50 (nM) ALK_L1196M
T2 construct: purchased Carna Biosciences (Japan)
Description: as §1, §2, §3
[…]. The enzyme reaction was carried out at room temperature in white Proxiplate 384-Plus plate (PerkinElmer) for 60 minutes.
as §4, §5

T1 sequence (Q9UM73 19-1620): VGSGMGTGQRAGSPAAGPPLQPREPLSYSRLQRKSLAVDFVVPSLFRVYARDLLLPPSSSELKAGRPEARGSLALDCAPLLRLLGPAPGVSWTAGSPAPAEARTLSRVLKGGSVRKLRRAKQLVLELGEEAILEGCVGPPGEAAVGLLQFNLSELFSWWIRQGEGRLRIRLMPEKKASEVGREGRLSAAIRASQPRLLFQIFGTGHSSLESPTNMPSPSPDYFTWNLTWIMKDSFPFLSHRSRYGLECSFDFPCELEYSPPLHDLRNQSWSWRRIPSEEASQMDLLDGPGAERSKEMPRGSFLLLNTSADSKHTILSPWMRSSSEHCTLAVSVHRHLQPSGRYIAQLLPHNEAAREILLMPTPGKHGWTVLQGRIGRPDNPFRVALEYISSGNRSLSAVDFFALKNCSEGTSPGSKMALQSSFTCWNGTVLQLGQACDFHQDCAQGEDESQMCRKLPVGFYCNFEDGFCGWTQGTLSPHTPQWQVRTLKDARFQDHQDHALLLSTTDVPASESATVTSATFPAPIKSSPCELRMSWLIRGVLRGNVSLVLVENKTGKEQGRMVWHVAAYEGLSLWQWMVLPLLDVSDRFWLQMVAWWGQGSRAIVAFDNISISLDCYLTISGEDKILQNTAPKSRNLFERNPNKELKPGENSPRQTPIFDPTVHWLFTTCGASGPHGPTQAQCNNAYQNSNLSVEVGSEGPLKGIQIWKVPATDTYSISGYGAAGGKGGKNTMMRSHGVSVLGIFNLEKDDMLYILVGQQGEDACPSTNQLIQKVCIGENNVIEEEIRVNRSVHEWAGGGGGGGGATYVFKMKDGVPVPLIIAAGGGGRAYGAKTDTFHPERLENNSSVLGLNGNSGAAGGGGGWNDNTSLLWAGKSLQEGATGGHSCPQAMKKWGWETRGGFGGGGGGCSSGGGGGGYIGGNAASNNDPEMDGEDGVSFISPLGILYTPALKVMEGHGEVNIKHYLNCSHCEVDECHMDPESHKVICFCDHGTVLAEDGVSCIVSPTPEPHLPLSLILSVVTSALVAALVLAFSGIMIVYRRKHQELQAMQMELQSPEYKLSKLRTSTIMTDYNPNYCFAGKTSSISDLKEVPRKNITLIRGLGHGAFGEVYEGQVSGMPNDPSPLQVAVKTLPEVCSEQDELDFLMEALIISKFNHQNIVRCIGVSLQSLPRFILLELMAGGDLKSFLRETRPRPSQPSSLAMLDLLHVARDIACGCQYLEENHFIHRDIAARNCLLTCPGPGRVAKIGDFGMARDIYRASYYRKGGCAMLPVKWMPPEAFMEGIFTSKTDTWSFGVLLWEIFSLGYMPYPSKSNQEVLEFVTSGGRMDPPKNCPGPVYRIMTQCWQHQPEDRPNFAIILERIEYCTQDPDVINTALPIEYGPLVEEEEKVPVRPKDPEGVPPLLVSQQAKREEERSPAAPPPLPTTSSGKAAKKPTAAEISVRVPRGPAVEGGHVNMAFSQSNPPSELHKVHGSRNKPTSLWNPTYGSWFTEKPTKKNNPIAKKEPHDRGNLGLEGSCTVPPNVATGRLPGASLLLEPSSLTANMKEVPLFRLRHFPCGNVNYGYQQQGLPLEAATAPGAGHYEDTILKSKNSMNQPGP
T2 sequence (Q9UM73 19-1620 L1196M): as the sequence (Q9UM73 19-1620) above, with L1178M counted along it

SMILES | IC50 (ALK wild type) | IC50 (ALK L1196M)
CC1Oc2cc(cnc2N)-c2c(nn(C)c2C#N)NC(=O)COc2ccc(F)cc21 (stereo not shown) [Compound 15] | 2370 nM | –
CC1Oc2cc(cnc2N)-c2c(nn(C)c2C#N)N(C)C(=O)COc2ccc(F)cc21 (single isomer, unassigned) [Compound 17] | 7430 nM | –
CC1Oc2cc(cnc2N)-c2c(nn(C)c2C#N)N(C)C(=O)COc2ccc(F)cc21 (single isomer, unassigned) [Compound 16] | 34.8 nM | 529 nM
